The results in this text go back to US20240051997A1, “SAP AND PEPTIDOMIMETIC COMPOSITIONS FOR REDUCING SYMPTOMS OF INFLAMMATION” (Arch Biosurgery, Inc., priority 2018, published 2024).

Assay [1] relates to kidney inflammation, ED-1 reactivity (macrophage activation). Description: Acute kidney injury model (stab wound plus cautery), ED-1 immunohistochemistry. In kind it is in vivo, Sprague-Dawley rat. The note with it: rat kidney, 3% solution of EARA-16 or 1% solution of KS. The procedure: The anti-inflammatory effects of EARA-16 (SEQ ID NO: 89) and a RADA-kidney specific peptide conjugate (Ac-(RADA)3CVSVPQAL-CONH2; SEQ ID NO: 413; referred to as KS) were examined. Specifically, the effects of EARA-16 and KS on inflammation caused by burn damage were examined using an acute kidney injury model. Levels of inflammation were assayed through immuno-histochemical ED-1 reactivity (ED-1 serves as a marker of macrophage activation).
Adult Sprague-Dawley rats were anesthetized and their intraperitoneal cavities were opened under aseptic conditions. For each animal, the kidney was exposed and then subjected to a stab wound injury.
Cautery was then performed at the injury site to stop bleeding. After cauterization, the injury site was either left untreated and the animals were closed or the site was treated with a 3% solution of EARA-16 (SEQ ID NO: 89) or a 1% solution of KS (SEQ ID NO: 413). The animals were allowed to survive for up to 14 days. The animals were then sacrificed and their kidneys were harvested and sectioned. An ED-1 antibody was used to determine the level of inflammation and activation of macrophages in the kidney via immunohistochemistry (IHC). For each experimental condition, n=3 (max).
Animals receiving no injury, but in which saline was applied to the kidney in a similar location to that of the experimental animals, were used as controls (n=8).

In assay [2] the test system is olfactory bulb inflammation, GFAP (reactive astrocytes). Description: Olfactory bulb injury model (transection), GFAP immunohistochemistry. In kind it is in vivo, Sprague-Dawley rat. The note with it: rat olfactory bulb, days 2-14. The procedure:
The anti-inflammatory effects of EARA-16 (SEQ ID NO: 89) and RADA-16 (SEQ ID NO: 1) were examined using an olfactory bulb injury model. Levels of inflammation were assayed through immunohistochemical staining for glial fibrillary acidic protein (GFAP) as an indicator of reactive astrocytes.
In brief, the olfactory bulbs of adult Sprague-Dawley rats were unilaterally transected and the cuts were then treated with either saline as a control, or one of RADA-16 (SEQ ID NO: 1) or EARA-16 (SEQ ID NO: 89) solutions (each used at 1% and 3%). The SAP materials were injected into the cuts post transection at the time of surgery. After 2, 7 or 14 days, the animals were sacrificed.
A more detailed protocol is as follows: adult Sprague-Dawley rats were anesthetized with a mixture of ketamine (80 mg/kg, i. p.) and xylazine (8 mg/kg, i. p.). The head was shaved and a thorough disinfection of the head surface was carried out with iodine 5% solution. The bilateral olfactory bulbs were exposed by drilling two burr holes (2 mm diameter, 8 mm anterior to the bregma) on either side at a distance of 2 mm from the midline of the frontal bone in the region overlying the olfactory bulbs. A cataract knife with a blunted end and one sharpened edge was used for surgery. The cut was performed on the middle of olfactory bulb. The blunted edge of the knife was inserted along the middle line of the olfactory bulb to prevent damage of the sagittal sinus, until the tip of the knife lightly touched the bottom of the brain without penetration of the dura. The knife was then moved laterally to transect the bulb until it reached the lateral edge of the hole. The knife was then rotated and pulled out to have a complete cut of the bulb at lateral side. This procedure was modified from the method described in several previous studies attempting to isolate the olfactory bulb from other parts of the brain (Ahrens & Freeman 2001; Allison 1953; Chaput 1983; Freeman 1968; Koliatsos et al 2004; Munirathinam et al 1997).
After performing the cut, one of the solutions was used to treat the injury site: either 10 μl saline (control group) or the EARA-16 (SEQ ID NO: 89) or RADA-16 (SEQ ID NO: 1) SAP (at a concentration of 1% and 3%) was injected evenly into the wound site using a self-constructed hydraulic pressure injection system without micro syringe. This technique was modified from similar methods as described by Bullier and others (Bullier et al 1980; Fish & Rhoades 1981; Kratskin et al 1997; Meyers & Snow 1981; Price et al 1977; Shipley 1982). Care was taken to control the speed of the injection of the saline or the SAP. After the injection, the wound was closed and the animals were placed in a warm place for recovery before they were brought back to their home cages. […]

Assay [3] relates to liver inflammation, ED-1 reactivity (macrophage activation). Briefly: Rat liver injury model (punch biopsy), ED-1 immunohistochemistry. In kind it is in vivo, Sprague-Dawley rat. To be noted: 4 mm punch biopsy, all time-points observed, compared to saline or acid controls. The procedure:
(§1) The anti-inflammatory effects of EARA-16 (SEQ ID NO: 89) and RADA-16 (SEQ ID NO: 1) SAPs were examined using a liver injury model. Levels of inflammation were assayed through immuno-histochemical ED-1 reactivity (ED-1 serves as a marker of macrophage activation).
(§2) Pigs or adult Sprague-Dawley rats were anesthetized and their intraperitoneal cavities were opened under aseptic conditions. For each animal, the liver was exposed and then subjected to an 8 mm (pig) or 4 mm (rat) punch biopsy.
(§3) The punch sites were then cauterized or treated with acid (for pH control), saline, or RADA-16 (SEQ ID NO: 1) or EARA-16 (SEQ ID NO: 89) solutions. The animals were allowed to survive for up to 14 days. The animals were then sacrificed and their livers were harvested and sectioned. An ED-1 antibody was used to determine the level of inflammation and activation of macrophages in the liver via immunohistochemistry (IHC).

Assay [4] shares this test system. Briefly: Pig liver injury model (punch biopsy), ED-1 immunohistochemistry. In kind it is in vivo. The note with it: 8 mm punch biopsy, day 7 post-treatment, compared to saline or cauterization controls. The protocol: as §1, §2, §3

As for “Ac-(RADA)3CVSVPQAL-CONH2 (Ac-RADARADARADACVSVPQAL-NH2) [KS, RADA-kidney specific peptide conjugate]”, the “reduction in inflammation compared to cautery only (ED-1 IHC)” value in assay [1] (7-day survival) was 68%; in assay [1] (14-day survival), 66%.

On to “EARAEARAEARAEARA [EARA-16, self-assembling peptide]”, for which the “time course of reactive astrocyte activation / inflammation (GFAP)” value was “increased activation of reactive astrocytes on day 7 which subsequently reduced by day 14” in assay [2] (1% solution) and “increasing inflammation levels, but at a much slower rate than the saline controls” in assay [2] (3% solution). The “levels of inflammation in liver (ED-1 IHC)” value in assay [3] and in assay [4] was “markedly reduced the levels of inflammation” throughout. Also, the “reduction in inflammation compared to cautery only (ED-1 IHC)” value in assay [1] (7-day survival) stood at 80%; in assay [1] (14-day survival) it was 66%.
